Publication PMC9841525, “Chemical Blockage of the Mitochondrial Rhomboid Protease PARL by Novel Ketoamide Inhibitors Reveals Its Role in PINK1/Parkin-Dependent Mitophagy” (Journal of Medicinal Chemistry, 2022)
*1 amine or outer side, *2 acyl side, *3 side chain or, on linkers, in order; H or OH if unused. Where a SMILES comes first, the peptide text is derived from it. [ ]: non-standard residue; d: D form. The star is where a group is joined. NH(4-phenylbutyl) = c1ccc(CCCCN*)cc1; X1 = C[C@H](N[*:1])C(=O)C(=O)[*:2]

Experiments:
[1] = target: T1, PARL (Homo sapiens, UniProt Q9H300); test: PARL inhibition assay in cells: cleavage of overexpressed PGAM5-Myc by tetracycline-induced PARL-FLAG, immunoblot; assay type: cell-based; parameters: expressed in transfected cells; host or cells: Flp-In HEK293 T-REx PARL knockout cells
T1 sequence (Q9H300 53-379): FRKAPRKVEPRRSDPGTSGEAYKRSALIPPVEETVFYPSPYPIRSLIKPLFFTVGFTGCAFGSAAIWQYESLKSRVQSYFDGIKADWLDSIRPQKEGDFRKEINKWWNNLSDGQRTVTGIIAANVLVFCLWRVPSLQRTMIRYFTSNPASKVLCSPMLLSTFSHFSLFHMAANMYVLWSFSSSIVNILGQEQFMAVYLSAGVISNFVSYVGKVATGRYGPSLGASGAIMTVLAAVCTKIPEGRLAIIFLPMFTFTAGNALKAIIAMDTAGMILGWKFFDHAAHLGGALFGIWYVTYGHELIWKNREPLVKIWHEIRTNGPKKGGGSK
Protocol: PARL inhibition assays in cells were carried out in Flp-In HEK293 T-REx PARL knockout cells stably transfected with tetracycline inducible PARL-FLAG grown in DMEM (Gibco) supplemented with 10% (v/v) tetracycline-free fetal bovine serum (Clontech). For the inhibition assay, 0.7 × 10^6 cells were seeded per well of a 6-well plate, and the next day transfected with 5 μg of human PGAM5-Myc in pcDNA and 15 μg of branched polyethylenimine (Polysciences) per well. Four hours after transfection, the PARL expression was induced by adding tetracycline to 1 μg/mL. Eight hours after transfection, the inhibitors were added to each well in different concentrations in serum-free DMEM with 1% DMSO.
For immunoblot analysis of the effects of PARL inhibitors on PGAM5 cleavage, after overnight incubation with inhibitors, cells from each well were harvested in 1× SDS sample buffer containing 20 mM MgCl2 and Pierce universal nuclease (250 U/mL, Thermo Scientific) and heated to 65 °C for 10 min. Loading volumes for SDS-PAGE were adjusted by measuring total protein concentration in the lysates with Pierce 660 nm Protein Assay Reagent and Ionic Detergent Compatibility Reagent for Pierce 660 nm Protein Assay Reagent (Thermo Scientific). Samples were resolved by SDS-PAGE using a 12% polyacrylamide gel (Biorad) and electrotransferred onto an Immobilon PVDF membrane (Merck Millipore). Blots were blocked using casein blocker (Thermo Scientific) and hPGAM5 was labeled by rabbit anti-Myc antibody (Cell Signaling Technology, cat. #2278, dilution 1:1000) at 4 °C overnight. Blots were washed three times with TBS-T and incubated with IRDye 800 CW donkey anti-rabbit antibody (Invitrogen, cat. #SA5-10044, dilution 1:10,000) at room temperature for 2 h. Membranes were then again washed three times with TBS-T and one time with TBS. Fluorescence emission at […] of dried membranes was scanned on Odyssey CLx (LI-COR). Cleavage efficiency and inhibition were analyzed as described[23] using Image Studio Lite (LI-COR), Excel (Microsoft) and GraphPad Prism 9 (GraphPad Software, Inc.).

[2] = target: T1, PARL; test: CCCP-induced PGAM5-FLAG cleavage by endogenous PARL in HEK293T cells, immunoblot; assay type: cell-based; parameters: expressed in transfected cells; host or cells: Flp-In HEK293 T-REx PARL knockout cells; details: 3 h, mean ± SEM of four experiments, read-out: Apparent IC50, CCCP-induced PGAM5 cleavage
Protocol: (§1) Inducible stable Flp-In HEK293 T-REx cells expressing PINK1 were described previously.[33] HEK293 T-REx PINK1 and HEK293T cells were grown in DMEM (Gibco) supplemented with 10% (v/v) fetal bovine serum (ThermoFisher), 1% (v/v) GlutaMAX (Gibco), 1% (v/v) sodium pyruvate (Gibco), 125 μg/mL hygromycin (Invitrogen), and 10 μg/mL blasticidin (Gibco) or DMEM supplemented with 10% (v/v) fetal bovine serum, respectively, at 37 °C in 5% (v/v) CO2. For microscopy, cells were seeded on poly-L-lysine (Sigma)-coated slides. Transient plasmid transfections were performed using 25 kDa linear polyethylenimine (Polysciences). Plasmid (100 ng) encoding HA-Parkin-IRES-GFP, mito-mCherry or Parkin-mEGFP, or 500 ng plasmid encoding PGAM5-FLAG were used per 6-well. Total transfected DNA was 2 μg/well. For siRNA transfection, 2 × 10^5 cells were seeded per 6-well and on the next day transfected with 20 nM siRNA-oligonucleotide using lipofectamine RNAiMAX (ThermoFisher). Cells were analyzed 27 h post-transfection or five days post-siRNA-transfection. HEK293 T-REx PINK1 cells were induced with 0.3 μg/mL doxycycline for 24 h before further processing. […] For quantification, ImageJ was used (http://rsb.info.nih.gov/ij/). Immunoblots shown are representative of at least three independent experiments and were evaluated using Excel and GraphPad Prism 9 (GraphPad Software, Inc.).

[3] = test system: PINK1; test: PINK1 processing in HEK293 T-REx cells overexpressing PINK1, immunoblot; assay type: cell-based, human; details: HEK293 T-REx cells overexpressing PINK1, 8 h
Protocol: as §1

- IC50 ([1]; Flp-In HEK293 T-REx PARL KO cells with inducible PARL-FLAG, PGAM5-Myc, mean ± SEM of four or three experiments, read-out: Apparent IC50, PGAM5 cleavage by overexpressed PARL): 410 nM
- Fold better than compound 6 in cells ([1]; ratio of apparent IC50 values, compound 5 vs compound 6): about 8 fold
- IC50 [2]: 150 nM
Structure (SMILES): CC(=O)N[C@@H](C)C(=O)N[C@H](C(=O)N[C@@H](Cc1ccccc1)C(=O)N[C@@H](CC(C)C)C(=O)N[C@@H](C)C(=O)C(=O)NCCCCc1ccccc1)C(C)C [compound 5] (Ac-AVFL[X1]-{NH(4-phenylbutyl)})
- Effect on cleavage and stabilization of overexpressed PINK1 [3]: dose-dependent stabilization of PINK1–66
- Effect on cleavage and stabilization of overexpressed PINK1 ([3]; listed as Compound 5): inhibits the PARL-cleavage of overexpressed PINK1 in a dose-dependent manner
